Some results are limits rather than exact numbers.

This test concerns breast cancer cell line ZR-75-1. As to the kind of experiment: Inhibition of proliferation of breast cancer cell line ZR-75-1 (CellTiter-Glo). In kind it is cell-based. As to conditions: Homo sapiens, 240 h, proliferation of ZR-75-1 cells, 10 days of incubation, read-out: IC50 (KAT6A).
Usually IC50 stands for the midpoint of a concentration-inhibition curve. Take `COc1ccc2c(c1S(=O)(=O)Nc1noc3cc(Cn4cccn4)c(F)c(OC)c13)OCCO2` [Compound 28, N-(6-((1H-Pyrazol-1-yl)methyl)-5-fluoro-4-methoxybenzo[d]isoxazol-3-yl)-6-methoxy-2,3-dihydrobenzo[b][1,4]dioxine-5-sulfonamide]: the IC50 was less than 0.5 nM.
Turning to `COc1ccc2c(c1S(=O)(=O)Nc1noc3cc(Cn4cccn4)c(F)c(OC)c13)OCCC2=O` [Compound 42, N-(6-((1H-Pyrazol-1-yl)methyl)-5-fluoro-4-methoxybenzo[d]isoxazol-3-yl)-7-methoxy-4-oxochromane-8-sulfonamide], the IC50 is less than 0.5 nM.
The same measure for `COc1ccc2c(c1S(=O)(=O)Nc1noc3cc(Cn4cccn4)c(F)c(OC)c13)OCC=C2` [Compound 101, N-(6-((1H-Pyrazol-1-yl)methyl)-5-fluoro-4-methoxybenzo[d]isoxazol-3-yl)-7-methoxy-2H-chromene-8-sulfonamide]: less than 0.5 nM.
The same measure for `COc1ccc2c(c1S(=O)(=O)Nc1noc3cc(Cn4cccn4)c(F)c(OC)c13)OCCN2C` [Compound 109, N-(6-((1H-Pyrazol-1-yl)methyl)-5-fluoro-4-methoxybenzo[d]isoxazol-3-yl)-7-methoxy-4-methyl-3,4-dihydro-2H-benzo[b][1,4]oxazine-8-sulfonamide]: less than 0.5 nM.
The same measure for `COc1ccccc1S(=O)(=O)Nc1noc2cc(Cn3cccn3)cc(OC)c12` [PF-8144, reference compound]: 0.5 to 2 nM.

(Values after patent publication US20260174778A1, “SULFONAMIDE COMPOUND, AND PREPARATION METHOD THEREFOR AND USE THEREOF” (SHANGHAI HENLIUS BIOTECH, INC., priority 2023, published 2026).)
